Patent publication US10444228B2, “Method of screening a candidate compound for inducing bile canalicular function disorders” (Biopredic International, priority 2014, dated 2019)

Key:
Assay type in all cases: cell-based, human
ZO-1 = assay: Immunolocalization of junctional protein ZO-1; settings: treated HepaRG cultures
Rho-kinase = Rho-kinase activity (Merck-Millipore kit) in treated cell lysates; settings: differentiated HepaRG cells, 2 h, 1-50 μM
Description: Differentiated HepaRG cells were exposed to increased doses of CPZ (from 1-50 μM) for 2 h and Rho-kinase activity was measured (kit Merck-Millipore) according to manufacturer. Untreated cells and cells exposed to the Rho-kinase inhibitor Y27632 (10 μM) were used for controls.

[1] = tested on: differentiated HepaRG cells (bile canalicular lumen); assay: Bile canaliculi lumen morphology by F-actin (phalloidin) / CDFDA imaging; settings: for change of bile canaliculus lumen (constriction or swelling): Example 1, 2 h exposure, F-actin phalloidin staining; for change of bile canaliculus lumen (constriction or swelling) / change of biliary lumen (constriction or swelling): differentiated HepaRG cells; for induction of cholestasis (phenotype with swollen lumen) / change of biliary lumen (constriction or swelling): Example 2; for induction of cholestasis (phenotype with swollen lumen): HepaRG cells; for change of biliary lumen (constriction or swelling): F-actin phalloidin and CDFDA staining
Description: Two week DMSO-treated HepaRG cultures were exposed to 50 μM CPZ for 2 h and analyzed at different times during exposure. Constriction was evidenced by F-actin staining using phalloidin.
Comparison of the cytoskeleton organization of control cells versus CPZ and Y27632 treated cultures for 2 h. Fibers of F-actin accumulated at the biliary were labelling by phalloidin and counterstaining of nuclei was performed by Hoechst staining.
ii)—Analysis of the F-actin organization and biliary lumen changes using phalloidin and fluorescent CDFDA staining. After exposure to the candidate compounds, cells were washed twice, fixed with Paraformaldehyde (4%) fixative for 20 min, washed and stained with phalloidin for 10 min. For CDFDA staining, details are provided below.
Images obtained on microscope were used for calculating the size of the biliary lumen after treatment. Appropriate algorithm has been developed for quantification using Cellomics equipment.

[2] = tested on: phosphorylated myosin light chain (P-MYL9); assay: Western blotting of phosphorylated myosin light chain; settings: for P-myosin (P-MYL9) level by western blotting: Example 2, after 1 hour
Description: Accumulation of phosphorylated light chain myosin was evidenced by western blotting technique in using the (P)-MYl2 antibody. Control cells, 2h-CPZ treated cells and 2h-y27632-treated cells were compared. Cell lysates were prepared.
Accumulation of the phosphorylated myosin light chain was performed by western blotting using p-Myl antibody.

[3] = tested on: differentiated HepaRG cells (canalicular clearance); assay: Biliary clearance activity with CDFDA marker compound; settings: versus control cells
Description: The first step was incubation with the marker compound. CDFDA was preferentially used. After washing, differentiated cells plated in wells from 24 well-plates, were washed with HBSS buffer twice and incubated with 250 μl of CDFDA solution prepared at the final concentration of 3 μM in HBSS buffer containing Ca++ buffer (pH 7.4). After 30 min cells were washed with the same buffer. […] Quantification of the fluorescent dye into the medium is performed. A comparative evolution was established between control (untreated) and CPZ- and EF-treated cells. […] Calculation of the amount of released fluorescent dye molecules was performed by spectrometry and the canalicular clearance efficiency (CCE) was determined per time unit.

[4] = tested on: differentiated HepaRG cells (canalicular clearance); assay: Biliary clearance with Rhodamin 123 marker compound
Description: Another assay was performed with Rhodamin 123 as marker compound.

[5] = tested on: HepaRG cells (canalicular efflux); assay: Efflux of [3H]-taurocholate
Description: Efflux of Taurocholate (TA). Cells were first exposed to [3H]-TA for 30 min, then washed with PBS and incubated with or without CPZ at different time points (from 0 to 6 hours) in a standard buffer with Ca2+ and Mg2+. After the incubation time, cells were washed with PBS and incubated for 5 min with a Ca2+ and Mg2+− free buffer in order to disrupt the canalicular tight junctions. Then they were scraped in 0.1 N NaOH; the remaining radiolabeled substrate was measured through scintillation counting to determinate TA efflux. To discriminate between basolateral and canalicular efflux, cells were incubated in parallel in either standard or Ca2+ and Mg2+-free buffer for 30 minutes after TA uptake before measuring the remaining radiolabeled TA. Canalicular efflux was calculated using this equation: Canalicular efflux: Radioactivity in efflux mediumCa2+ and Mg2+ free buffer—Radioactivity in efflux medium Standard buffer. Differentiated cells were exposed or not to CPZ (50 μM for 2 h) before radiolabelled TA addition.

HepaRG cells = assay: Accumulation of labelled taurocholate in cells including canaliculi space; settings: increased concentrations, compared to control
Excerpt: The data also provides information related to junctional complex organization and the role of metalloproteinases in controlling permeability.

| induction of cholestasis (phenotype with swollen lumen) [1] | Compound | distribution of ZO-1 at the biliary pole (ZO-1) | Rho-kinase activity (Rho-kinase) | change of bile canaliculus lumen (constriction or swelling) [1] | change of biliary lumen (constriction or swelling) [1] | P-myosin (P-MYL9) level by western blotting [2] | other results |
| --- | --- | --- | --- | --- | --- | --- | --- |
| – | CC(=O)/C(C)=N/O [BDM] | – | – | – | – | inhibition of P-myosin phosphorylation | – |
| – | CN(C)CCCN1c2ccccc2Sc2ccc(Cl)cc21 [CPZ, chlorpromazine] | appears normal | dose-dependent activation of Rho-kinase | Constriction of canaliculus lumen | lumen constriction | accumulation of P-myosin | clearance of CDFDA dye out of the canalicular space [3]: delay in the clearance of dye; clearance of CDFDA dye out of the canalicular space ([3]; listed as chlorpromazine): delay of clearance; clearance of Rhodamin 123 dye [4]: delay; taurocholate efflux ([5]; CPZ 50 μM): decrease of taurocholate efflux; change of bile canaliculus lumen (constriction or swelling) ([1]; listed as chlorpromazine): constriction of the canaliculus lumen; change of biliary lumen (constriction or swelling) ([1]; listed as chlorpromazine): abnormal and permanent lumen constriction; myosin-light chain phosphorylation (immunoblotting) ([2]; Example 1, 2 h treated HepaRG cells): accumulation of myosin-light chain phosphorylation |
| inducing cholestasis | C[C@H](CCC(=O)O)[C@H]1CC[C@H]2[C@@H]3CC[C@@H]4C[C@H](O)CC[C@]4(C)[C@H]3C[C@H](O)[C@]12C [DCA, Deoxycholic acid] | – | – | – | – | – | – |
| inducing cholestasis | O=S(=O)(c1cccc2cnccc12)N1CCCNCC1 [Fasudil] | appears normal | – | – | relaxation/swelling | – | accumulation of labelled taurocholate in cells including canaliculi space (HepaRG cells): abnormal accumulation of labelled taurocholate; accumulation of labelled taurocholate in cells including canaliculi space (HepaRG cells; listed as fasudil): highest values |
| – | C=CC[C@@H]1/C=C(\C)C[C@H](C)C[C@H](OC)[C@H]2O[C@@](O)(C(=O)C(=O)N3CCCC[C@H]3C(=O)O[C@H](/C(C)=C/[C@@H]3CC[C@@H](O)[C@H](OC)C3)[C@H](C)[C@@H](O)CC1=O)[C@H](C)C[C@@H]2OC [Fk, Tacrolimus] | – | activate the Rho-kinase activity | inducing lumen constriction | – | – | – |
| – | C[C@@H](N)[C@H]1CC[C@H](C(=O)Nc2ccncc2)CC1 [Y27632] | – | – | swelling/relaxation | swelling | inhibition of P-myosin phosphorylation | clearance of CDFDA dye out of the canalicular space [3]: delay in biliary clearance; clearance of CDFDA dye out of the canalicular space ([3]; listed as EF): delay in the clearance of dye; clearance of Rhodamin 123 dye [4]: delay; accumulation of labelled taurocholate in cells including canaliculi space (HepaRG cells): abnormal accumulation of labelled taurocholate; taurocholate efflux with Rho-kinase inhibitor added to CPZ ([5]; in presence of CPZ): recovery of taurocholate efflux activity |
| – | COc1ccccc1Oc1c(NS(=O)(=O)c2ccc(C(C)(C)C)cc2)nc(-c2ncccn2)nc1OCCO [bosentan] | – | – | – | abnormal and prolonged canalicular lumen swelling | – | – |
| – | Cyclosporin A [CsA] | – | activate the Rho-kinase activity | inducing lumen constriction | lumen constriction | accumulation of P-myosin | change of biliary lumen (constriction or swelling) ([1]; listed as cyclosporine A): constriction |

| Compound | induction of cholestasis (phenotype with swollen lumen) [1] | distribution of ZO-1 at the biliary pole (ZO-1) | Rho-kinase activity (Rho-kinase) | change of bile canaliculus lumen (constriction or swelling) [1] | change of biliary lumen (constriction or swelling) [1] | P-myosin (P-MYL9) level by western blotting [2] | other results |
| --- | --- | --- | --- | --- | --- | --- | --- |
| S=C=Nc1cccc2ccccc12 [ANIT] | inducing cholestasis | appears normal | activate the Rho-kinase activity | inducing lumen constriction | relaxation/swelling | – | – |
